Measured values from ChEMBL document CHEMBL1125227, “Potential antitumor agents. 62. Structure-activity relationships for tricyclic compounds related to the colon tumor active drug 9-oxo-9H-xanthene-4-acetic acid” (J Med Chem, 1991).

How the values were obtained:
Type in all cases: functional, organism-based
Details in all cases: Mus musculus
MC-38 [1] = assay: In Vivo antitumor effect on subcutaneously implanted C38 colon tumor in mice and examined by histopathology and compared with control.( - = <50% hemorrhagic response) at optimal dose of 500 (mg/kg)
MC-38 [2] = assay: In Vivo antitumor effect on subcutaneously implanted C38 colon tumor in mice and examined by histopathology and compared with control.( - = <50% hemorrhagic response) at optimal dose of 750 (mg/kg)
MC-38 [3] = assay: In Vivo antitumor effect on subcutaneously implanted C38 colon tumor in mice and examined by histopathology and compared with control.( - = <50% hemorrhagic response) at optimal dose of 330 (mg/kg)
MC-38 [4] = assay: In Vivo antitumor effect on subcutaneously implanted C38 colon tumor in mice and examined by histopathology and compared with control.( ++ = >90% hemorrhagic necrosis response) at optimal dose of 220 (mg/kg)
MC-38 [5] = assay: In Vivo antitumor effect on subcutaneously implanted C38 colon tumor in mice and examined by histopathology and compared with control.(+ = 50-90% hemorrhagic necrosis response) at optimal dose of 750 (mg/kg)
MC-38 [6] = assay: In Vivo antitumor effect on subcutaneously implanted C38 colon tumor in mice and examined by histopathology and compared with control.( + = 50-90% hemorrhagic necrosis response) at optimal dose of 750 (mg/kg)
MC-38 [7] = assay: In Vivo antitumor effect on subcutaneously implanted C38 colon tumor in mice and examined by histopathology and compared with control.( + = 50-90% hemorrhagic necrosis response) at optimal dose of 500 (mg/kg)

| Structure (SMILES) | Activity (MC-38 [2]) | further results |
| --- | --- | --- |
| O=C(O)Cc1cccc2c1Oc1ccccc1C2 | – | Activity (MC-38 [1]): <50% hemorrhagic response at optimal dose of 500 mg/kg |
| O=C(O)Cc1cccc2oc3ccccc3c12 | <50% hemorrhagic response at optimal dose of 750 mg/kg | – |
| O=C(O)Cc1cccc2c1Oc1ccccc1O2 | <50% hemorrhagic response at optimal dose of 750 mg/kg | – |
| O=C(O)Cc1cccc2c(=O)c3ccccc3[s+]([O-])c12 (stereo unspecified) | <50% hemorrhagic response at optimal dose of 750 mg/kg | – |
| O=C(O)Cc1cccc2c1Oc1ccccc1S2 | – | Activity (MC-38 [3]): <50% hemorrhagic response at optimal dose of 330 mg/kg |
| O=C(O)Cc1cccc2c(=O)c3ccccc3oc12 | – | Activity (MC-38 [4]): >90% hemorrhagic necrosis response at optimal dose of 220 mg/kg |
| O=C(O)Cc1cccc2c1Oc1ccccc1[S+]2[O-] (stereo unspecified) | <50% hemorrhagic response at optimal dose of 750 mg/kg | – |
| O=C(O)Cc1cccc2c1C(=O)c1ccccc1C2=O | – | Activity (MC-38 [5]): 50-90% hemorrhagic necrosis response at optimal dose of 750 mg/kg |
| O=C(O)Cc1cccc2nc3ccccc3nc12 | <50% hemorrhagic response at optimal dose of 750 mg/kg | – |
| O=C(O)Cc1cccc2c1S(=O)(=O)c1ccccc1C2=O | <50% hemorrhagic response at optimal dose of 750 mg/kg | – |
| O=C(O)Cc1cccc2c1Oc1ccccc1CC2=O | <50% hemorrhagic response at optimal dose of 750 mg/kg | – |
| O=C(O)Cc1cccc2c1Oc1ccccc1S2(=O)=O | <50% hemorrhagic response at optimal dose of 750 mg/kg | – |
| O=C(O)Cc1cccc2cc3ccccc3cc12 | – | Activity (MC-38 [6]): 50-90% hemorrhagic necrosis response at optimal dose of 750 mg/kg |
| O=C(O)Cc1cccc2c1Oc1ccccc1C(=O)C2 | – | Activity (MC-38 [6]): 50-90% hemorrhagic necrosis response at optimal dose of 750 mg/kg |
| O=C(O)Cc1cccc2c1oc1ccccc12 | – | Activity (MC-38 [7]): 50-90% hemorrhagic necrosis response at optimal dose of 500 mg/kg |
| O=C(O)Cc1cccc2c(=O)c3ccccc3sc12 | – | Activity (MC-38 [3]): <50% hemorrhagic response at optimal dose of 330 mg/kg |
